These results are taken from patent publication US11554171B2, “Compounds and methods for the targeted degradation of bromodomain-containing proteins” (Arvinas Operations, Inc., priority 2015, dated 2023).

The test system of the test is c-myc in 22RV-1 cells. Nature of the test: Human c-myc ELISA assay. Type of test: cell-based. The note with it: Homo sapiens; for Emax: 22Rv1, 18 h, read-out: Degradation of BRD4: Maximum inhibition (%) c-Myc ELISA in 22RV1 cells; for DC50: 22Rv1, read-out: Degradation of BRD4: DC50 (uM) c-Myc ELISA in 22RV1 cells. An outline of the steps: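 22RV-1 cells treated 18 h with 8-point 1:3 compound dilutions (final top 300 nM or 1 μM, 0.1% DMSO). Cells lysed in RIPA buffer with protease/phosphatase inhibitors, and c-myc protein in cleared lysate quantified by ELISA against a standard curve. DC50 reported for c-myc suppression.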
For orientation: An ELISA detects its analyte on a solid surface through an enzyme-linked reagent.

For `Cc1ncsc1-c1ccc([C@H](C)NC(=O)[C@@H]2C[C@@H](O)CN2C(=O)[C@@H](NC(=O)c2ccc(OC(C)CCNC(=O)C[C@@H]3N=C(c4ccc(Cl)cc4)c4c(sc(C)c4C)-n4c(C)nnc43)cn2)C(C)(C)C)cc1` (some centres unmarked) [Example 157], the Emax was found to be 97% and the DC50 was under 0.01 µM.
In the case of `Cc1ncsc1-c1ccc([C@H](C)NC(=O)[C@@H]2C[C@@H](O)CN2C(=O)[C@@H](NC(=O)COCCOCCCOc2ccc([C@H](C)NC(=O)C[C@H]3N=C(c4ccc(Cl)cc4)c4c(sc(C)c4C)-n4c(C)nnc43)cc2)C(C)(C)C)cc1` [Example 109], the Emax is under 5% and the DC50 is over 1 µM.
In the same order, the values of `Cc1ncsc1-c1ccc(CNC(=O)[C@@H]2C[C@@H](O)CN2C(=O)[C@@H](NC(=O)COCCCOCCCOc2ccc(NC(=O)C[C@@H]3N=C(c4ccc(Cl)cc4)c4c(sc(C)c4C)-n4c(C)nnc43)nc2)C(C)(C)C)cc1` [Example 28] are 100% and 0.01 to 0.1 µM.
`Cc1ncsc1-c1ccc([C@H](C)NC(=O)[C@@H]2C[C@@H](O)CN2C(=O)[C@@H](NC(=O)CN2CCC(O[C@H]3C[C@@H](NC(=O)C[C@@H]4N=C(c5ccc(Cl)cc5)c5c(sc(C)c5C)-n5c(C)nnc54)C3)CC2)C(C)(C)C)cc1` [Example 257, (2S,4R)-1-[(2S)-3,3-dimethyl-2-(2-{4-[(1,3-cis)-3-{2-[(9S)-7-(4-chlorophenyl)-4,5,13-trimethyl-3-thia-1,8,11,12-tetraazatricyclo[8.3.0.0^2,^6]trideca-2(6),4,7,10,12-pentaen-9-yl]acetamido}cyclobutoxy]piperidin-1-yl}acetamido)butanoyl]-4-hydroxy-N-[(1S)-1-[4-(4-methyl-1,3-thiazol-5-yl)phenyl]ethyl]pyrrolidine-2-carboxamide]: the Emax stood at 87% and the DC50 fell in the range of 0.01 to 0.1 µM.
Take `Cc1ncsc1-c1ccc(CNC(=O)[C@@H]2C[C@@H](O)CN2C(=O)[C@@H](NC(=O)COCCCCOCCCOc2ccc(NC(=O)C[C@@H]3N=C(c4ccc(Cl)cc4)c4c(sc(C)c4C)-n4c(C)nnc43)cc2)C(C)(C)C)cc1` [Example 15]: the Emax was found to be 100% and the DC50 lay within 0.01 to 0.1 µM.
Consider `Cc1ncsc1-c1ccc(CNC(=O)[C@@H]2C[C@@H](O)CN2C(=O)[C@H](C(C)C)n2cc(-c3ccnc(O[C@H]4C[C@H](NC(=O)C[C@@H]5N=C(c6ccc(Cl)cc6)c6c(sc(C)c6C)-n6c(C)nnc65)C4)c3)cn2)cc1` [Example 226], for which the Emax worked out at 99% and the DC50 is 0.01 to 0.1 µM.
For `Cc1ncsc1-c1ccc(CNC(=O)[C@@H]2C[C@@H](O)CN2C(=O)[C@H](c2cc(Oc3ccc(O[C@H]4C[C@@H](NC(=O)C[C@@H]5N=C(c6ccc(Cl)cc6)c6c(sc(C)c6C)-n6c(C)nnc65)C4)nc3)no2)C(C)C)cc1` [Example 324], in that order: 31.6% and over 1 µM.
In the same order, the values of `Cc1sc2c(c1C)C(c1ccc(Cl)cc1)=N[C@@H](CC(=O)N[C@H]1C[C@@H](Oc3ccc4oc(C(=O)N[C@H](C(=O)N5C[C@H](O)C[C@H]5C(=O)N[C@@H](C)c5ccc(-n6ccnc6C)cc5)C(C)(C)C)cc4c3)C1)c1nnc(C)n1-2` [Example 261] are 92.7% and 0.01 to 0.1 µM.
In the same order, the values of `Cc1ncsc1-c1ccc(CNC(=O)[C@@H]2C[C@@H](O)CN2C(=O)[C@H](C(C)C)n2cc(-c3cccc(O[C@@H](C)CNC(=O)C[C@@H]4N=C(c5ccc(Cl)cc5)c5c(sc(C)c5C)-n5c(C)nnc54)c3)cn2)cc1` [Example 199] are 93% and under 0.01 µM.
Regarding `Cc1ncsc1-c1ccc([C@H](C)NC(=O)[C@@H]2C[C@@H](O)CN2C(=O)[C@H](C(C)C)n2cc(-c3cc(F)cc(OCCNC(=O)C[C@@H]4N=C(c5ccc(Cl)cc5)c5c(sc(C)c5C)-n5c(C)nnc54)c3)cn2)cc1` [Example 224], the Emax came out at 100% and the DC50 is under 0.01 µM.
For `Cc1ncsc1-c1ccc([C@H](C)NC(=O)[C@@H]2C[C@@H](O)CN2C(=O)[C@@H](NC(=O)/C=C/c2ccc(F)c(O[C@@H](C)CNC(=O)C[C@@H]3N=C(c4ccc(Cl)cc4)c4c(sc(C)c4C)-n4c(C)nnc43)c2)C(C)(C)C)cc1` [Example 160], in that order: 94.5% and under 0.01 µM.
In the same order, the values of `Cc1ncsc1-c1ccc(CNC(=O)[C@@H]2C[C@@H](O)CN2C(=O)[C@@H](NC(=O)COCCN2CCN(c3ccc([C@@H](C)NC(=O)C[C@@H]4N=C(c5ccc(Cl)cc5)c5c(sc(C)c5C)-n5c(C)nnc54)cc3)CC2)C(C)(C)C)cc1` [Example 59] are 95% and 0.1 to 1 µM.
For `Cc1ncsc1-c1ccc([C@H](C)NC(=O)[C@@H]2C[C@@H](O)CN2C(=O)[C@H](C(C)C)n2cc(-c3ccc(N4CCN(C(=O)C[C@@H]5N=C(c6ccc(Cl)cc6)c6c(sc(C)c6C)-n6c(C)nnc65)CC4)nc3)cn2)cc1` [Example 320], in that order: 97.8% and under 0.01 µM.
With `Cc1ncsc1-c1ccc([C@H](C)NC(=O)[C@@H]2C[C@@H](O)CN2C(=O)[C@@H](NC(=O)COc2ccnc(N3CCN(C(=O)C[C@@H]4N=C(c5ccc(Cl)cc5)c5c(sc(C)c5C)-n5c(C)nnc54)CC3)c2)C(C)(C)C)cc1` [Example 327, (2S,4R)-1-[(2S)-2-(2-{[2-(4-{2-[(9S)-7-(4-chlorophenyl)-4,5,13-trimethyl-3-thia-1,8,11,12-tetraazatricyclo[8.3.0.0^2,^6]trideca-2(6),4,7,10,12-pentaen-9-yl]acetyl}piperazin-1-yl)pyridin-4-yl]oxy}acetamido)-3,3-dimethylbutanoyl]-4-hydroxy-N-[(1S)-1-[4-(4-methyl-1,3-thiazol-5-yl)phenyl]ethyl]pyrrolidine-2-carboxamide], the Emax stood at 96% and the DC50 is under 0.01 µM.
For `Cc1ncsc1-c1ccc([C@H](C)NC(=O)[C@@H]2C[C@@H](O)CN2C(=O)[C@@H](C(C)C)n2cc(-c3ccnc(O[C@H]4C[C@@H](NC(=O)C[C@@H]5N=C(c6ccc(Cl)cc6)c6c(sc(C)c6C)-n6c(C)nnc65)C4)n3)cn2)cc1` [Example 300], in that order: 24% and over 1 µM.
As to `Cc1ncsc1-c1ccc([C@H](C)NC(=O)[C@@H]2C[C@@H](O)CN2C(=O)[C@@H](NC(=O)Cc2ccc(O[C@H]3C[C@H](NC(=O)C[C@@H]4N=C(c5ccc(Cl)cc5)c5c(sc(C)c5C)-n5c(C)nnc54)C3)cc2F)C(C)(C)C)cc1` [Example 249, (2S,4R)-1-[(2S)-2-(2-{2-fluoro-4-[(1r,3r)-3-{2-[(9S)-7-(4-chlorophenyl)-4,5,13-trimethyl-3-thia-1,8,11,12-tetraazatricyclo[8.3.0.0^2,^6]trideca-2(6),4,7,10,12-pentaen-9-yl]acetamido}cyclobutoxy]phenyl}acetamido)-3,3-dimethylbutanoyl]-4-hydroxy-N-[(1S)-1-[4-(4-methyl-1,3-thiazol-5-yl)phenyl]ethyl]pyrrolidine-2-carboxamide], the Emax amounted to 98.5% and the DC50 is under 0.01 µM.
For `Cc1ncsc1-c1ccc([C@H](C)NC(=O)[C@@H]2C[C@@H](O)CN2C(=O)[C@@H](NC(=O)CCCCC(=O)N2CCN(C(=O)C[C@@H]3N=C(c4ccc(Cl)cc4)c4c(sc(C)c4C)-n4c(C)nnc43)CC2)C(C)(C)C)cc1` [Example 319], in that order: 78.5% and 0.1 to 1 µM.
In the same order, the values of `Cc1ncsc1-c1ccc([C@H](C)NC(=O)[C@@H]2C[C@@H](OC(=O)CCN)CN2C(=O)[C@@H](NC(=O)c2cc3cc(O[C@H]4C[C@@H](NC(=O)C[C@@H]5N=C(c6ccc(Cl)cc6)c6c(sc(C)c6C)-n6c(C)nnc65)C4)ccc3o2)C(C)(C)C)cc1` [Example 339] are 97% and under 0.01 µM.
For `Cc1ncsc1-c1ccc([C@H](C)NC(=O)[C@@H]2C[C@@H](O)CN2C(=O)[C@@H](NC(=O)[C@@H](C)OCCCOCCNC(=O)C[C@@H]2N=C(c3ccc(Cl)cc3)c3c(sc(C)c3C)-n3c(C)nnc32)C(C)(C)C)cc1` [Example 154], in that order: 94.5% and under 0.01 µM.
With `Cc1ncsc1-c1ccc(CNC(=O)[C@@H]2C[C@H](O)CN2C(=O)[C@@H](NC(=O)COCCCOCCNC(=O)C[C@@H]2N=C(c3ccc(Cl)cc3)c3c(sc(C)c3C)-n3c(C)nnc32)C(C)(C)C)cc1` [Example 73], the Emax was found to be 21.4% and the DC50 is over 1 µM.
On to `Cc1ncsc1-c1ccc(CNC(=O)[C@@H]2C[C@@H](O)CN2C(=O)[C@@H](NC(=O)COCCOCCOCCOc2ccc3c(c2)c2c(C(N)=O)cc(-c4c(C)noc4C)cc2n3Cc2ccccc2)C(C)(C)C)cc1` [Example 83], for which the Emax stood at 98% and the DC50 was 0.01 to 0.1 µM.
Consider `Cc1ncsc1-c1ccc([C@H](C)NC(=O)[C@@H]2C[C@@H](O)CN2C(=O)[C@@H](NC(=O)COCCOCCCOc2ccc([C@H](C)NC(=O)C[C@@H]3N=C(c4ccc(Cl)cc4)c4c(sc(C)c4C)-n4c(C)nnc43)cc2)C(C)(C)C)cc1` [Example 34], for which the Emax was determined as 99.7% and the DC50 was 0.01 to 0.1 µM.
For `Cc1sc2c(c1C)C(c1ccc(Cl)cc1)=N[C@@H](CC(=O)N[C@H]1C[C@@H](Oc3cc(-c4cnn([C@H](C(=O)N5C[C@H](O)C[C@H]5C(=O)N[C@@H](C)c5ccc(-c6nccn6C)cc5)C(C)C)c4)ccn3)C1)c1nnc(C)n1-2` [Example 293], in that order: 9.5% and over 1 µM.
For `Cc1ncsc1-c1ccc([C@H](C)NC(=O)[C@@H]2C[C@@H](O)CN2C(=O)[C@@H](NC(=O)COCCOCCCNC(=O)C[C@@H]2N=C(c3ccc(Cl)cc3)c3c(sc(C)c3C)-n3c(C)nnc32)C(C)(C)C)cc1` [Example 147], in that order: 98.5% and under 0.01 µM.
In the case of `Cc1ncsc1-c1ccc(CNC(=O)[C@@H]2C[C@@H](O)CN2C(=O)[C@@H](C(C)C)n2cc(Oc3ccc(CNC(=O)C[C@@H]4N=C(c5ccc(Cl)cc5)c5c(sc(C)c5C)-n5c(C)nnc54)cc3)cn2)cc1` [Example 237], the Emax came out at 13.8% and the DC50 was over 1 µM.

For orientation: DC50 means the midpoint of the concentration-degradation curve.
